Laboratory results from PubChem BioAssay (NCI).
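Briefly, cells in 96-well plates were exposed to five compound concentrations for 48 h, and endpoints were estimated by linear interpolation. TGI denotes the concentration required for complete inhibition of growth.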

What was measured:
Assay in all cases: NCI tumour cell line growth inhibition, 48 h
[1] = system: COLO 205 colon
[2] = system: A549 NSCLC
[3] = system: CAKI-1 renal
[4] = system: OVCAR-8 ovarian
[5] = system: NCI-H460 lung
[6] = system: HOP-92 NSCLC
[7] = system: HT29 colon
[8] = system: K-562 leukemia
[9] = system: SK-MEL-28 melanoma
[10] = system: M19-MEL melanoma
[11] = system: NCI-H23 lung
[12] = system: UO-31 renal
[13] = system: RXF-631 renal
[14] = system: SK-MEL-2 melanoma
[15] = system: DMS 114 small cell lung
[16] = system: KM12 colon
[17] = system: OVCAR-5 ovarian
[18] = system: HCT-116 colon
[19] = system: MALME-3M melanoma
[20] = system: SF-268 CNS
[21] = system: UACC-62 melanoma
[22] = system: OVCAR-3 ovarian
[23] = system: HOP-62 NSCLC
[24] = system: UACC-257 melanoma
[25] = system: 786-0 renal
[26] = system: EKVX NSCLC
[27] = system: SNB-19 CNS
[28] = system: SN12C renal
[29] = system: NCI-H522 lung
[30] = system: A498 renal
[31] = system: NCI-H226 lung
[32] = system: SW-620 colon
[33] = system: SR leukemia
[34] = system: RPMI-8226 leukemia
[35] = system: U251 CNS
[36] = system: SK-OV-3 ovarian
[37] = system: SNB-75 CNS
[38] = system: DMS 273 small cell lung
[39] = system: DLD-1 colon
[40] = system: SK-MEL-5 melanoma
[41] = system: M14 melanoma
[42] = system: ACHN renal
[43] = system: KM20L2 colon
[44] = system: HCC-2998 colon
[45] = system: MOLT-4 leukemia
[46] = system: OVCAR-4 ovarian
[47] = system: CCRF-CEM leukemia
[48] = system: LXFL 529 NSCLC
[49] = system: IGROV1 ovarian
[50] = system: SF-539 CNS
[51] = system: SNB-78 CNS
[52] = system: SF-295 CNS
[53] = system: HL-60(TB) leukemia
[54] = system: TK-10 renal

COc1ccc(/C=C(/C(=O)O)c2cc(OC)c(OC)c(OC)c2)cc1
TGI [1]: > 100 µM
TGI [2]: > 100 µM
TGI [3]: > 100 µM
TGI [4]: > 100 µM
TGI [5]: > 100 µM
TGI [6]: > 100 µM
TGI [7]: > 100 µM
TGI [8]: > 100 µM
TGI [9]: > 100 µM
TGI [10]: > 100 µM
TGI [11]: > 100 µM
TGI [12]: > 100 µM
TGI [13]: > 100 µM
TGI [14]: > 100 µM
TGI [15]: > 100 µM
TGI [16]: > 100 µM
TGI [17]: > 100 µM
TGI [18]: > 100 µM
TGI [19]: > 100 µM
TGI [20]: > 100 µM
TGI [21]: > 100 µM
TGI [22]: 64.1 µM
TGI [23]: > 100 µM
TGI [24]: > 100 µM
TGI [25]: > 100 µM
TGI [26]: > 100 µM
TGI [27]: > 100 µM
TGI [28]: > 100 µM
TGI [29]: 36.6 µM
TGI [30]: > 100 µM
TGI [31]: > 100 µM
TGI [32]: > 100 µM
TGI [33]: > 100 µM
TGI [34]: > 100 µM
TGI [35]: > 100 µM
TGI [36]: > 100 µM
TGI [37]: 79 µM
TGI [38]: > 100 µM
TGI [39]: > 100 µM
TGI [40]: > 100 µM
TGI [41]: 99.1 µM
TGI [42]: > 100 µM
TGI [43]: 98.2 µM
TGI [44]: > 100 µM
TGI [45]: > 100 µM
TGI [46]: > 100 µM
TGI [47]: > 100 µM
TGI [48]: > 100 µM
TGI [49]: > 100 µM
TGI [50]: 51.2 µM
TGI [51]: > 100 µM

Cc1cccc2c3ccc4c(c3n(C)c12)C(=O)C=CC4=O
TGI [1]: > 100 µM
TGI [2]: > 100 µM
TGI [3]: > 100 µM
TGI [4]: > 100 µM
TGI [6]: > 100 µM
TGI [7]: > 100 µM
TGI [8]: > 100 µM
TGI [9]: > 100 µM
TGI [10]: > 100 µM
TGI [11]: 57.8 µM
TGI [52]: > 100 µM
TGI [12]: > 100 µM
TGI [13]: > 100 µM
TGI [14]: > 100 µM
TGI [15]: > 100 µM
TGI [16]: > 100 µM
TGI [18]: > 100 µM
TGI [19]: > 100 µM
TGI [20]: > 100 µM
TGI [21]: > 100 µM
TGI [22]: > 100 µM
TGI [23]: > 100 µM
TGI [24]: > 100 µM
TGI [25]: > 100 µM
TGI [26]: > 100 µM
TGI [27]: > 100 µM
TGI [28]: > 100 µM
TGI [29]: > 100 µM
TGI [31]: > 100 µM
TGI [32]: > 100 µM
TGI [33]: > 100 µM
TGI [34]: > 100 µM
TGI [36]: > 100 µM
TGI [37]: > 100 µM
TGI [38]: > 100 µM
TGI [39]: > 100 µM
TGI [41]: > 100 µM
TGI [44]: > 100 µM
TGI [53]: 41.9 µM
TGI [45]: > 100 µM
TGI [46]: > 100 µM
TGI [54]: > 100 µM
TGI [47]: 61.2 µM
TGI [48]: > 100 µM
TGI [49]: > 100 µM
TGI [50]: > 100 µM
TGI [51]: > 100 µM
